Test results published in paper PMC5654082 (Malaria Journal, 2017).
Counter-ions that a name gives are not always drawn.

How the values were obtained:
human OCT1 = target: T1, human OCT1 (Homo sapiens, UniProt O15245); assay: Inhibition of OCT1-mediated ASP uptake in transduced HEK293 cells; assay type: cell-based; conditions: 50 µM anti-malarial, 10 µM ASP, 10 min, 37 °C; relative to solvent control fixed at 100%
T1 construct: host or cells: HEK293, baculovirus transduction (CMV promoter), transient
T1 sequence (O15245 1-554): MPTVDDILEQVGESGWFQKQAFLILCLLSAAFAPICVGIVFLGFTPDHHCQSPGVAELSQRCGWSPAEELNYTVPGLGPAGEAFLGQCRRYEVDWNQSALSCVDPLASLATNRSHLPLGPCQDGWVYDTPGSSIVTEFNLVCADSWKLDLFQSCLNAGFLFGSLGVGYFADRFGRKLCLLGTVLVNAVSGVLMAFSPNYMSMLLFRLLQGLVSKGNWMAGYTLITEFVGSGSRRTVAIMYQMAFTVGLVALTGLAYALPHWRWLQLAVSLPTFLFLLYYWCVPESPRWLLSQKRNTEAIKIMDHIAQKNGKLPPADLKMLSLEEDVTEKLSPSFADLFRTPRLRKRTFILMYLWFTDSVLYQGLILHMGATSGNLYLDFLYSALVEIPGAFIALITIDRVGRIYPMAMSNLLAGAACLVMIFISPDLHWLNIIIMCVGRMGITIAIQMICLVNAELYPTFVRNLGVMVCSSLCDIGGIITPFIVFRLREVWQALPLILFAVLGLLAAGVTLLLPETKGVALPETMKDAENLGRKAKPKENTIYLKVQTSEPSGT
Protocol: HEK293 cells were modified to transiently express (a combination of) human OCT1, OCT2, MATE1, MATE2-K, or eYFP. Briefly, cDNA of the respective genes was cloned downstream of a CMV promoter into a baculovirus, of which passage three was used to transduce HEK293 cells. These cells were seeded in poly-D-lysine coated 24- or 96-wells plates and grown in a 37 °C incubator at 5% CO2. Growth was initiated at ~ 25% confluency using 375 or 125 μL cell and complete medium (DMEM + GlutaMAX™-I supplemented with 10% fetal bovine serum) suspension per well, respectively. After 24 h, cells were transduced with 30 µL virus (10 µL virus + 20 µL complete medium in case of 96-wells plates) or 2 × 15 µL virus for cells that required simultaneous expression of two transporters. Finally, 195 µL sodium butyrate (45 µL for 96-wells plates) was added to a final concentration of 2 mM to enhance protein expression.
AMO (10 mM), ASP (1 mM), CQ (10 mM), PQ (10 mM) and PG (10 mM) were dissolved in MilliQ water. ART (10 mM), ATO (10 mM), DHA (10 mM), LUM (10 mM), MQ (10 mM), NMQ (20 mM), PYR (10 mM), QN (10 mM) were dissolved in DMSO. All compound stocks were stored at − 20 °C. Inhibition of OCT1- or OCT2-mediated ASP uptake by anti-malarials was performed in poly-D-lysine coated 96-wells plates 2 or 3 days following HEK293 cell transduction. In short, cells were washed with 125 µL 37 °C HBSS containing 10 mM HEPES, pH 7.4. Then, a 50 µL mixture of ASP (10 µM) and anti-malarial compound (25, 50 or 100 µM) in HBSS buffer (pH 7.4) was added to each well and incubated for 10 min at 37 °C. ASP transport was stopped by washing with 125 µL ice-cold HBSS-HEPES buffer supplemented with 0.5% BSA. Following a second wash with 125 µL ice-cold HBSS-HEPES buffer, cells were lysed with 125 µL 1 M NaOH and ASP was excited at a wavelength of 485 nm and fluorescence was detected at an emission wavelength of 535 nm using the Victor X3 multimode plate reader.
For each compound, a range of seven concentrations was used to determine the concentration at which ASP uptake was inhibited half maximally (IC50). At least three independent experiments (4 for QN) were performed for each drug in triplicate as described above. Inhibition curves were plotted by nonlinear regression analyses of the data using GraphPad Prism version 5.03. […] To generate the final dose–response inhibition curve per anti-malarial, percentage of uptake was averaged for each drug concentration per experiment and the resulting mean ± SEM corresponding to three or four independent experiments were plotted.

[1] = cited from earlier work

Question: Which “Relative ASP uptake (OCT1-mediated)” value (human OCT1) does the source give for [H]/N=C(\N/C(=N/[H])Nc1ccc(Cl)cc1)NC(C)C [Proguanil, proguanil hydrochloride] here?
Answer: The value was 60 ± 7%.

Question: What about the Unbound fraction [1] of the same compound?
Answer: The Unbound fraction was 0.25 [39].
